According to US20260049072A1, “HETEROCYCLIC COMPOUND FOR INDUCING DEGRADATION OF MUTANT KRAS PROTEIN” (Astellas Pharma Inc., priority 2022, published 2026):
Like-named read-outs stand apart in the source and are kept apart here.

How the values were obtained:
[1] = test system: phosphorylation of ERK (Thr202/Tyr204); assay: ERK phosphorylation inhibitory activity, cell ELISA, PA-TU-8902; format: cell-based; details: Homo sapiens, read-out: IC50 (ERK phosphorylation inhibition)
Experimental: Test Example 2: Evaluation of ERK Phosphorylation Inhibitory Activity on Human KRAS G12V Mutant-Positive Pancreatic Cancer Line PA-TU-8902
The ERK phosphorylation inhibitory activities of subject compounds were evaluated by measuring phosphorylation of the 202th threonine (Thr202) and the 204th tyrosine (Tyr204) of ERK located downstream of the KRAS signal by cell ELISA.
PA-TU-8902 cells were seeded at 36 µL/well on a 384-well plate (from Greiner bio-one) to give 5.0×10^3 cells per well. The cell culture conditions were the same conditions as in Test Example 1-1.
The next day, the subject compounds (9 points having final concentrations in the range of 3 μM to 0.3 nM), trametinib (MEK inhibitor) of a final concentration of 300 nM as a positive control and DMSO, which was the solvent for the subject compounds, as a negative control were diluted 100-fold with a fresh medium and were each added at 4 μL per well, followed by culturing for 24 hours. After culturing, a 30% glyoxal solution (40% glyoxal [from Nacalai Tesque] was diluted with PBS) was quickly added at 30 μL per well, and the plate was allowed to stand for an hour and 30 minutes at room temperature to thus immobilize the cells. Then, the plate was centrifuged (110×g, seven seconds, hereinafter centrifugation was performed under the same conditions unless otherwise specified) to remove the supernatant, and 0.1% Triton X-100-containing PBS was added at 20 μL per well. After allowing the plate to stand for 10 minutes at room temperature, the supernatant was removed by centrifugation, and the same operation was further repeated. Next, 0.5% SDS-containing PBS was added at 20 μL per well. The plate was allowed to stand at room temperature for 30 minutes and was then centrifuged to remove the supernatant. Subsequently, a blocking solution (Intercept Blocking Buffer) was added at 20 μL per well, and the plate was allowed to stand for an hour at room temperature. The supernatant was removed by centrifugation, and an ERK (Thr202/Tyr204) phosphorylation antibody (Phospho-p44/42 MAPK (Erk 1/2) (Thr202/Tyr204) (D13.14.4E) XP Rabbit mAb; from Cell Signaling Technology) diluted 2,500-fold with the blocking solution was added at 15 μL per well as a primary antibody. The plate was allowed to stand at 4° C. overnight.
The next day, the plate was centrifuged to remove the supernatant, and 0.05% Tween-20-containing PBS (from Thermo Scientific; 20×PBS Tween-20 was diluted 20-fold with ion exchange water and used) was added at 50 μL per well. The supernatant was removed by centrifugation to thus wash each well. The washing was performed three times in total. After washing, an anti-rabbit IgG antibody diluted 1,000-fold with the blocking solution was added at 15 μL per well as a secondary antibody, and the plate was allowed to stand for an hour at room temperature. The plate was centrifuged to remove the supernatant, and each well was washed three times with 0.05% Tween-20-containing PBS in the same manner as after the primary antibody reaction. Centrifugation after the third washing was performed at 171×g for 17 seconds. After removing the supernatant, the plate was dried as it was with air at room temperature for three hours or more, and the 800-nm fluorescent signals were measured with Aerius.
With the signaling value at the time of addition of DMSO taken as 0% inhibition and with the signaling value at the time of addition of 300 nM trametinib taken as 100% inhibition, the 50% inhibition values (IC50) were calculated by Sigmoid-Emax model nonlinear regression analysis.

RAS G12D = biological target: T1, RAS G12D (Homo sapiens, UniProt P01116, G12D); assay: RAS G12D degradation activity, Cell ELISA, AsPC-1; format: cell-based; details: AsPC-1 cells, 24 hours; read-out: DC50 (RAS G12D 50% degradation value)
T1 construct: host or cells: AsPC-1 human pancreatic cancer cells
Experimental: Test Example 1-2: Evaluation of RAS G12D Degradation Activity on Human KRAS G12D Mutant-Positive Pancreatic Cancer Line AsPC-1
The RAS G12D degradation activities of subject compounds were evaluated in the same manner as in Test Example 1-1 by measuring the expression levels of RAS G12D by a Cell ELISA method.
AsPC-1 cells (ATCC, CRL-1682) were seeded at 36 μL per well on a 384-well plate to give 2.0×10^4 cells per well. As for the cell culture conditions, RPMI-1640 medium (from Sigma-Aldrich) containing 10% fetal bovine serum was used in the presence of 5% CO2 at 37° C.
The next day, the subject compounds (10 points having final concentrations in the range of 3 μM to 0.1 nM) and DMSO, which was the solvent for the subject compounds, as a negative control were diluted 100-fold with a fresh medium and were each added at 4 μL per well, followed by culturing for 24 hours.
The next day, the procedures from the immobilization of the cells to before the addition of the blocking solution were performed by the same methods as in Test Example 1-1. A blocking solution (Intercept Blocking Buffer; from LI-COR Biosciences) was added at 20 μL per well. After allowing the plate to stand for 30 minutes at room temperature, the supernatant was removed by centrifugation. A solution obtained by diluting an anti-R-actin antibody (1,000-fold dilution) with the blocking solution was added to the wells of the positive control as a primary antibody, and a solution obtained by diluting an anti-Ras (G12D Mutant Specific) antibody (Ras (G12D Mutant Specific) (D8H7) Rabbit mAb; from Cell Signaling Technology; 1,000-fold dilution) and an anti-3-actin antibody (1,000-fold dilution) with the blocking solution was added to the other wells as primary antibodies, each at 15 μL per well. The plate was allowed to stand overnight at 4° C.
The next day, the supernatant was removed by centrifugation, and the plate was washed with PBS. The supernatant was removed by centrifugation, and a solution obtained by diluting an anti-rabbit IgG antibody and an anti-mouse IgG antibody 1,000-fold with the blocking solution was added at 15 μL per well as secondary antibodies. After allowing the plate to stand at room temperature for an hour, the supernatant was removed by centrifugation, and the plate was washed with PBS. After removing the supernatant, the plate was dried as it was with air at room temperature for two hours or more, and the 700-nm and 800-nm fluorescent signals were measured with Aerius.
With the RAS G12D signaling value at the time of addition of DMSO corrected with the signaling value of β-actin taken as 0% and with the RAS G12D signaling value under the conditions of staining with the anti-β-actin antibody alone taken as 100%, the RAS G12D degradation rates were calculated. The 50% degradation values (DC50) were calculated by Sigmoid-Emax model nonlinear regression analysis.

[2] = PaTu 8902, PA-TU-8902 cells, 24 hours, 100% = 300 nM trametinib

T1 sequence (P01116 1-188 isoform P01116-2 G12D): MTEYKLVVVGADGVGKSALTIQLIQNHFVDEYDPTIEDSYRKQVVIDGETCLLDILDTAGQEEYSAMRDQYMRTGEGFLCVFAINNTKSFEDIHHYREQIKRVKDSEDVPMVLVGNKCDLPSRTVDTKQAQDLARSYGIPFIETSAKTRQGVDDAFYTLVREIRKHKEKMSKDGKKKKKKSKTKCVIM

SMILES	IC50 ([1]; PaTu 8902, 24 h) [nM]	DC50 (RAS G12D) [nM]	IC50 [1, 2] [nM]
CO[C@@H](C)COc1cc(OC2CN(C(=O)C3CN(C)C3)C2)c2cc(C3CC3)c(-c3c(C)c(F)cc4[nH]ncc34)c(OCc3ccc(-c4cn([C@H](C(=O)N5C[C@H](O)C[C@H]5C(=O)N[C@@H](CO)c5ccc(-n6cncn6)cc5)C(C)C)nn4)cc3)c2n1 (atropisomer, axis not shown) [Example 42]	14	6	–
CO[C@@H](C)COc1nc(NC2CN(C(=O)N3CC(CN(C)C)C3)C2)c2cc(C3CC3)c(-c3c(C)c(F)cc4[nH]ncc34)c(OCc3ccc(-c4cn([C@H](C(=O)N5C[C@H](O)C[C@H]5C(=O)N[C@@H](CO)c5ccc(-c6scnc6C)cc5)C(C)C)nn4)cc3)c2n1 (atropisomer, axis not shown) [Example 25]	–	3	13
COC(C)(C)COc1cc(OC2CN(C(=O)N3CC(CN(C)C)C3)C2)c2cc(C3CC3)c(-c3c(C)c(F)cc4[nH]ncc34)c(OCc3ccc(-c4cn([C@H](C(=O)N5C[C@H](O)C[C@H]5C(=O)N[C@@H](CO)c5ccc(-n6cncn6)cc5)C(C)C)nn4)cc3)c2n1 (atropisomer, axis not shown) [Example 9]	–	5	12
CO[C@@H](C)COc1cc(OC2CN(C(=O)N3CC(CN(C)C)C3)C2)c2cc(C3CC3)c(-c3c(C)c(F)cc4[nH]ncc34)c(OCc3ccc(-c4cn([C@H](C(=O)N5C[C@H](O)C[C@H]5C(=O)N[C@@H](CO)c5ccc(-c6ocnc6C)cc5)C(C)C)nn4)cc3)c2n1 (atropisomer, axis not shown; (M)) [Example 6, (4R)-1-[(2S)-2-(4-{4-[({(7M)-6-cyclopropyl-4-[(1-{3-[(dimethylamino)methyl]azetidine-1-carbonyl}azetidin-3-yl)oxy]-7-(6-fluoro-5-methyl-1H-indazol-4-yl)-2-[(2S)-2-methoxypropoxy]quinolin-8-yl}oxy)methyl]phenyl}-1H-1,2,3-triazol-1-yl)-3-methylbutanoyl]-4-hydroxy-N-{(1R)-2-hydroxy-1-[4-(4-methyl-1,3-oxazol-5-yl)phenyl]ethyl}-L-prolinamide]	–	5	7
CO[C@@H](C)COc1cc(OC2CN(C(=O)NCCN(C)C)C2)c2cc(C3CC3)c(-c3c(C)c(F)cc4[nH]ncc34)c(OCc3ccc(-c4cn([C@H](C(=O)N5C[C@H](O)C[C@H]5C(=O)N[C@@H](CO)c5ccc(-n6cncn6)cc5)C(C)C)nn4)cc3)c2n1 (atropisomer, axis not shown; (M)) [Example 12, (4R)-1-[(2S)-2-(4-{4-[({(7M)-6-cyclopropyl-4-[(1-{[2-(dimethylamino)ethyl]carbamoyl}azetidin-3-yl)oxy]-7-(6-fluoro-5-methyl-1H-indazol-4-yl)-2-[(2S)-2-methoxypropoxy]quinolin-8-yl}oxy)methyl]phenyl}-1H-1,2,3-triazol-1-yl)-3-methylbutanoyl]-4-hydroxy-N-{(1R)-2-hydroxy-1-[4-(1H-1,2,4-triazol-1-yl)phenyl]ethyl}-L-prolinamide]	–	3	18
CO[C@@H](C)COc1nc(OC2CN(C(=O)NCCN(C)C)C2)c2cc(C3CC3)c(-c3c(C)c(F)cc4[nH]ncc34)c(OCc3ccc(-c4cn([C@H](C(=O)N5C[C@H](O)C[C@H]5C(=O)N[C@@H](CO)c5ccc(-c6scnc6C)cc5)C(C)C)nn4)cc3)c2n1 (atropisomer, axis not shown) [Example 17]	–	11	23
CO[C@@H](C)COc1nc(NC2CN(C(=O)O[C@H]3C[C@@H](N(C)C)C3)C2)c2cc(C3CC3)c(-c3c(C)c(F)cc4[nH]ncc34)c(OCc3ccc(-c4cn([C@H](C(=O)N5C[C@H](O)C[C@H]5C(=O)N[C@@H](CO)c5ccc(-c6scnc6C)cc5)C(C)C)nn4)cc3)c2n1 (atropisomer, axis not shown; (M)) [Example 11, (1s,3R)-3-(dimethylamino)cyclobutyl 3-({(7M)-6-cyclopropyl-7-(6-fluoro-5-methyl-1H-indazol-4-yl)-8-{[4-(1-{(2S)-1-[(2S,4R)-4-hydroxy-2-({(1R)-2-hydroxy-1-[4-(4-methyl-1,3-thiazol-5-yl)phenyl]ethyl}carbamoyl)pyrrolidin-1-yl]-3-methyl-1-oxobutan-2-yl}-1H-1,2,3-triazol-4-yl)phenyl]methoxy}-2-[(2S)-2-methoxypropoxy]quinazolin-4-yl}amino)azetidine-1-carboxylate]	–	4	14
CO[C@@H](C)COc1nc(OC2CN(C(=O)NCCN(C)C)C2)c2cc(C3CC3)c(-c3c(C)c(F)cc4[nH]ncc34)c(OCc3ccc(C(=O)N[C@H](C(=O)N4C[C@H](O)C[C@H]4C(=O)N[C@@H](CO)c4ccc(-c5scnc5C)cc4)C(C)C)cc3)c2n1 [Example 40, N-{4-[({(7M)-6-cyclopropyl-4-[(1-{[2-(dimethylamino)ethyl]carbamoyl}azetidin-3-yl)oxy]-7-(6-fluoro-5-methyl-1H-indazol-4-yl)-2-[(2S)-2-methoxypropoxy]quinazolin-8-yl}oxy)methyl]benzoyl}-L-valyl-(4R)-4-hydroxy-N-{(1R)-2-hydroxy-1-[4-(4-methyl-1,3-thiazol-5-yl)phenyl]ethyl}-L-prolinamide]	53	47	–
